In brackets after ≈: the same amount, converted by molar mass.
Legend:
Assay type in all cases: cell-based
[1] = test system: PSEUDOMONAS AERUGINOSA 5007; experiment: In vitro antibacterial activity, MIC, BHI agar dilution; conditions: P. aeruginosa 5007, unit assumed
[2] = test system: STREPTOCOCCUS PYOGENES 930; experiment: as above; conditions: S. pyogenes 930, unit assumed
[3] = test system: STREPTOCOCCUS PYOGENES PIU 2548; experiment: as above; conditions: S. pyogenes PIU 2548, unit assumed
[4] = test system: ACINETOBACTER CALCOACETICUS CMX 669; experiment: as above; conditions: A. calcoaceticus CMX 669, unit assumed
[5] = test system: STAPHYLOCOCCUS AUREUS CMX 642A; experiment: as above; conditions: S. aureus CMX 642A, unit assumed
[6] = test system: STREPTOCOCCUS PYOGENES EES61; experiment: as above; conditions: S. pyogenes EES61, unit assumed
EN[…] ATCC 8043 = experiment: as above; conditions: E. faecium ATCC 8043, unit assumed
Summary of the method: (§1)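 BHI agar dilution: twelve plates with successive compound dilutions, inoculated by replicator with 1:100 culture dilutions (1:10 for slow growers such as Micrococcus and Streptococcus), 20 to 24 hours at 35-37° C. MIC was the lowest concentration giving no growth, slight haze or sparse isolated colonies versus drug-free control; erythromycin A as class reference.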

M[…] ATCC 4698 = experiment: as above; conditions: M. luteus ATCC 4698, unit assumed
Summary of the method: as §1

STR[…] 508 = experiment: as above; conditions: S. agalactiae CMX 508, unit assumed
Summary of the method: as §1

M[…] ATCC 9341 = experiment: as above; conditions: M. luteus ATCC 9341, unit assumed
Summary of the method: as §1

[7] = test system: STAPHYLOCOCCUS EPIDERMIDIS 3519; conditions: S. epidermidis 3519; BHI agar; unit assumed
[8] = test system: STAPHYLOCOCCUS AUREUS CMX 553; experiment: In vitro antibacterial activity, MIC, BHI agar dilution; conditions: S. aureus CMX 553, unit assumed
[9] = test system: PSEUDOMONAS AERUGINOSA DPHD-2862; experiment: as above; conditions: P. aeruginosa DPHD-2862, unit assumed
[10] = test system: STAPHYLOCOCCUS AUREUS ATCC 6538P; experiment: as above; conditions: S. aureus ATCC 6538P, 35-37° C., 20 to 24 hours, unit assumed
[11] = test system: PROVIDENCIA STUARTII CMX 640; conditions: P. stuartii CMX 640; BHI agar; unit assumed
[12] = test system: STAPHYLOCOCCUS AUREUS NCTC10649M; experiment: In vitro antibacterial activity, MIC, BHI agar dilution; conditions: S. aureus NCTC10649M, unit assumed
PSEUDOMONAS CEPACIA 296I = experiment: as above; conditions: P. cepacia 296I, unit assumed
CANDIDA ALBICANS CCH 442 = experiment: as above; conditions: C. albicans CCH 442, unit assumed
[13] = test system: ENTEROBACTER AEROGENES ATCC 13048; experiment: as above; conditions: E. aerogenes ATCC 13048, unit assumed
[14] = test system: STAPHYLOCOCCUS AUREUS A-5278; experiment: as above; conditions: S. aureus A-5278, unit assumed
[15] = test system: PSEUDOMONAS AERUGINOSA K799/61; experiment: as above; conditions: P. aeruginosa K799/61, unit assumed
[16] = test system: PSEUDOMONAS AERUGINOSA DPHD-5263; experiment: as above; conditions: P. aeruginosa DPHD-5263, unit assumed
[17] = test system: STAPHYLOCOCCUS AUREUS A5177; experiment: as above
[18] = test system: STREPTOCOCCUS BOVIS A-5169; experiment: as above; conditions: S. bovis A-5169, unit assumed
[19] = test system: KLEBSIELLA PNEUMONIAE ATCC 8045; experiment: as above; conditions: K. pneumoniae ATCC 8045, unit assumed
[20] = test system: PSEUDOMONAS AERUGINOSA BMH10; experiment: as above; conditions: P. aeruginosa BMH10, unit assumed
[21] = test system: MYCOBACTERIUM SMEGMATIS ATCC 114; experiment: as above; conditions: M. smegmatis ATCC 114, unit assumed
ESCHERICHIA COLI H560 = experiment: as above; conditions: E. coli H560, unit assumed
[22] = test system: PSEUDOMONAS AERUGINOSA K799/WT; experiment: as above; conditions: P. aeruginosa K799/WT, unit assumed
ESCHERICHIA COLI DC-2 = experiment: as above; conditions: E. coli DC-2, unit assumed
[23] = test system: STAPHYLOCOCCUS AUREUS 1775; experiment: as above; conditions: S. aureus 1775, unit assumed
ESCHERICHIA COLI KNK 437 = conditions: E. coli KNK 437; BHI agar; unit assumed
ESCHERICHIA COLI SS = experiment: In vitro antibacterial activity, MIC, BHI agar dilution; conditions: E. coli SS, unit assumed

| Compound | MIC [1] [µg/mL] | MIC [2] [µg/mL] | MIC [4] [µg/mL] | MIC [5] [µg/mL] | MIC [6] [µg/mL] | MIC (EN[…] ATCC 8043) [µg/mL] | MIC (M[…] ATCC 4698) [µg/mL] | MIC (STR[…] 508) [µg/mL] | MIC (M[…] ATCC 9341) [µg/mL] | MIC [7] [µg/mL] | MIC [8] [µg/mL] | MIC [9] [µg/mL] | MIC [10] [µg/mL] | MIC [11] [µg/mL] | MIC [12] [µg/mL] | MIC (PSEUDOMONAS CEPACIA 296I) [µg/mL] | MIC (CANDIDA ALBICANS CCH 442) [µg/mL] | MIC [13] [µg/mL] | MIC [14] [µg/mL] | MIC [16] [µg/mL] | other results |
| --- | --- | --- | --- | --- | --- | --- | --- | --- | --- | --- | --- | --- | --- | --- | --- | --- | --- | --- | --- | --- | --- |
| CC[C@H]1OC(=O)[C@H](C)C[C@H](C)[C@@H](O[C@@H]2O[C@H](C)C[C@H](N(C)C)[C@H]2O)[C@](C)(OC)C[C@@H](C)C2=NCCN3C(=O)O[C@@]1(C)[C@H]3[C@H]2C [Example 1] | > 100 | > 100 | > 100 | 6.2 (≈ 9.94 µM) | 0.39 (≈ 0.625 µM) | 0.78 (≈ 1.25 µM) | 0.39 (≈ 0.625 µM) | 0.39 (≈ 0.625 µM) | 0.39 (≈ 0.625 µM) | 12.5 (≈ 20 µM) | 6.2 (≈ 9.94 µM) | > 100 | 6.2 (≈ 9.94 µM) | 100 (≈ 160 µM) | 6.2 (≈ 9.94 µM) | 12.5 (≈ 20 µM) | > 100 | > 100 | > 100 | 50 (≈ 80.1 µM) | MIC [3]: 0.78 µg/mL (≈ 1.25 µM); MIC [15]: > 100 µg/mL; MIC ([17]; S. aureus A5177): 6.2 µg/mL (≈ 9.94 µM); MIC [18]: 0.39 µg/mL (≈ 0.625 µM); MIC [19]: > 100 µg/mL; MIC [20]: > 100 µg/mL; MIC [21]: 3.1 µg/mL (≈ 4.97 µM); MIC (ESCHERICHIA COLI H560): 50 µg/mL (≈ 80.1 µM); MIC [22]: > 100 µg/mL; MIC (ESCHERICHIA COLI DC-2): 0.78 µg/mL (≈ 1.25 µM); MIC [23]: > 100 µg/mL; MIC (ESCHERICHIA COLI KNK 437): 25 µg/mL (≈ 40.1 µM) |
| CC[C@H]1OC(=O)[C@H](C)C(=O)[C@H](C)[C@@H](O[C@@H]2O[C@H](C)C[C@H](N(C)C)[C@H]2O)[C@](C)(OC)C[C@@H](C)C2=NC[C@@H](C)N3C(=O)O[C@@]1(C)[C@H]3[C@H]2C [Example 9] | > 100 | > 100 | 12.5 (≈ 19.2 µM) | 0.39 (≈ 0.598 µM) | 0.01 (≈ 0.0153 µM) | 0.05 (≈ 0.0767 µM) | 0.39 (≈ 0.598 µM) | 0.01 (≈ 0.0153 µM) | 0.1 (≈ 0.153 µM) | 0.39 (≈ 0.598 µM) | 0.39 (≈ 0.598 µM) | > 100 | 0.39 (≈ 0.598 µM) | > 100 | 0.2 (≈ 0.307 µM) | > 100 | > 100 | 25 (≈ 38.4 µM) | > 100 | > 100 | MIC [3]: 0.39 µg/mL (≈ 0.598 µM); MIC [15]: 6.2 µg/mL (≈ 9.51 µM); MIC ([17]; S. aureus A5177, unit assumed): 0.39 µg/mL (≈ 0.598 µM); MIC [19]: 25 µg/mL (≈ 38.4 µM); MIC [20]: 100 µg/mL (≈ 153 µM); MIC [21]: 3.1 µg/mL (≈ 4.76 µM); MIC (ESCHERICHIA COLI H560): 25 µg/mL (≈ 38.4 µM); MIC [22]: 100 µg/mL (≈ 153 µM); MIC (ESCHERICHIA COLI DC-2): 25 µg/mL (≈ 38.4 µM); MIC [23]: > 100 µg/mL; MIC (ESCHERICHIA COLI KNK 437): 100 µg/mL (≈ 153 µM) |
| CC[C@H]1OC(=O)[C@H](C)C(=O)[C@H](C)[C@@H](O[C@@H]2O[C@H](C)C[C@H](N(C)C)[C@H]2O)[C@](C)(OC)C[C@@H](C)C2=NC[C@H](CO)N3C(=O)O[C@@]1(C)[C@H]3[C@H]2C [Example 63] | > 100 | > 100 | 100 (≈ 150 µM) | 1.56 (≈ 2.34 µM) | 0.1 (≈ 0.15 µM) | 0.2 (≈ 0.299 µM) | 0.78 (≈ 1.17 µM) | 0.2 (≈ 0.299 µM) | 0.2 (≈ 0.299 µM) | 0.78 (≈ 1.17 µM) | 1.56 (≈ 2.34 µM) | > 100 | 0.78 (≈ 1.17 µM) | > 100 | 0.78 (≈ 1.17 µM) | > 100 | > 100 | > 100 | > 100 | > 100 | MIC (ESCHERICHIA COLI SS): 0.78 µg/mL (≈ 1.17 µM); MIC ([17]; S. aureus A5177, unit assumed): 0.78 µg/mL (≈ 1.17 µM); MIC [18]: 0.05 µg/mL (≈ 0.0749 µM); MIC [19]: > 100 µg/mL; MIC [20]: > 100 µg/mL; MIC [21]: 6.2 µg/mL (≈ 9.28 µM); MIC (ESCHERICHIA COLI H560): 50 µg/mL (≈ 74.9 µM); MIC [22]: > 100 µg/mL; MIC (ESCHERICHIA COLI DC-2): > 100 µg/mL; MIC [23]: > 100 µg/mL; MIC (ESCHERICHIA COLI KNK 437): > 100 µg/mL |
| CC[C@H]1OC(=O)[C@H](C)C(=O)[C@H](C)[C@@H](O[C@@H]2O[C@H](C)C[C@H](N(C)C)[C@H]2O)[C@](C)(OC)C[C@@H](C)C2=NC[C@H](Cc3ccc(OCc4ccccc4)cc3)N3C(=O)O[C@@]1(C)[C@H]3[C@H]2C [Example 64] | > 100 | 25 (≈ 30 µM) | > 100 | 0.39 (≈ 0.468 µM) | 0.05 (≈ 0.0599 µM) | 0.2 (≈ 0.24 µM) | 0.78 (≈ 0.935 µM) | 0.1 (≈ 0.12 µM) | 0.1 (≈ 0.12 µM) | 0.39 (≈ 0.468 µM) | 0.2 (≈ 0.24 µM) | > 100 | 0.39 (≈ 0.468 µM) | > 100 | 0.2 (≈ 0.24 µM) | > 100 | 50 (≈ 59.9 µM) | > 100 | 50 (≈ 59.9 µM) | > 100 | MIC [3]: 0.78 µg/mL (≈ 0.935 µM); MIC (ESCHERICHIA COLI SS): 6.2 µg/mL (≈ 7.43 µM); MIC [15]: 12.5 µg/mL (≈ 15 µM); MIC ([17]; S. aureus A5177, unit assumed): 0.2 µg/mL (≈ 0.24 µM); MIC [18]: 0.1 µg/mL (≈ 0.12 µM); MIC [19]: > 100 µg/mL; MIC [20]: > 100 µg/mL; MIC [21]: 1.56 µg/mL (≈ 1.87 µM); MIC (ESCHERICHIA COLI H560): > 100 µg/mL; MIC [22]: > 100 µg/mL; MIC (ESCHERICHIA COLI DC-2): > 100 µg/mL; MIC [23]: 50 µg/mL (≈ 59.9 µM); MIC (ESCHERICHIA COLI KNK 437): > 100 µg/mL |
